# Assay results reported in ChEMBL document CHEMBL1201862, “PubChem BioAssay data set” (2004).
# Activity calls are given as the source filed them.
# What was measured:
# [1] = Cytotoxicity screening for potential Inhibitors of Bacterial Capsule Biogenesis (4).; type: functional
# Nonstructural protein 1 = Nonstructural protein 1 (Influenza A virus, UniProt Q194T2); type: functional, Influenza A virus (A/California/07/2009(H1N1))
# [2] = biological target: T1, Matrix metalloproteinase-14 (Homo sapiens, UniProt P50281); experiment: Dose Response confirmation of uHTS hits for a small molecule inhibitors of MT1-MMP activation in a fluorescence assay set 1.; type: functional
# [3] = biological target: Kappa-type opioid receptor (Homo sapiens, UniProt P41145); experiment: Late-stage fluorescence-based cell-based dose response assay for antagonists of kappa opioid receptor 1 (OPRK1).; type: functional
# Mu-type opioid receptor = Mu-type opioid receptor (Homo sapiens, UniProt P35372); experiment: Late-stage results from the probe development effort to identify antagonists of OPRK1: luminescence-based cell-based dose response OPRM1 counterscreen, Set 2.; type: functional
# [4] = biological target: Delta-type opioid receptor (Homo sapiens, UniProt P41143); experiment: Late-stage results from the probe development effort to identify antagonists of OPRK1: fluorescence-based cell-based dose response OPRD1 counterscreen, Set 2.; type: functional
# [5] = biological target: Sphingosine 1-phosphate receptor 1 (Homo sapiens, UniProt P21453); experiment: Late-stage counterscreen for antagonists of kappa opioid receptor 1 (OPRK1): fluorescence-based cell-based dose response assay to identify antagonists of Sphingosine 1-Phosphate Receptor 1 (S1P1).; type: functional
# Sequence of Sphingosine 1-phosphate receptor 1 (P21453 whole entry): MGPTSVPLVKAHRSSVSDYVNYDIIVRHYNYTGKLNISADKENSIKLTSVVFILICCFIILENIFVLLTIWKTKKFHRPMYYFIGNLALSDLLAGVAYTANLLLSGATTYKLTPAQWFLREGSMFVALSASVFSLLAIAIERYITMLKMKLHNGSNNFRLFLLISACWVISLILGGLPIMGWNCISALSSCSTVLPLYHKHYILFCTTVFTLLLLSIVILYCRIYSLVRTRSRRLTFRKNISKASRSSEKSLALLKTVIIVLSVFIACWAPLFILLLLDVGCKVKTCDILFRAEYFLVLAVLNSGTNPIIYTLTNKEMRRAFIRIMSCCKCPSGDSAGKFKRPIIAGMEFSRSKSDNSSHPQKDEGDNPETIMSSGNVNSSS
# [6] = viability loss in HepG2 hepatoma cells – cell-based, ATP luminescence, cherry-pick, activator set 2, cytotoxicity control, dose response (AID 1053143); type: functional
# [7] = biological target: Metabotropic glutamate receptor 3 (Rattus norvegicus, UniProt P31422); experiment: inhibition of rat mGlu3 glutamate signaling – HEK/GIRK cells, thallium flux, dose response (AID 651839); type: functional
# Kallikrein-7 = Kallikrein-7 (Homo sapiens, UniProt P49862); experiment: Fluorescence Intensity-based biochemical primary high throughput dose response assay to identify activators of kallikrein-7 (K7) zymogen.
# Sequence of Kallikrein-7 (P49862 whole entry): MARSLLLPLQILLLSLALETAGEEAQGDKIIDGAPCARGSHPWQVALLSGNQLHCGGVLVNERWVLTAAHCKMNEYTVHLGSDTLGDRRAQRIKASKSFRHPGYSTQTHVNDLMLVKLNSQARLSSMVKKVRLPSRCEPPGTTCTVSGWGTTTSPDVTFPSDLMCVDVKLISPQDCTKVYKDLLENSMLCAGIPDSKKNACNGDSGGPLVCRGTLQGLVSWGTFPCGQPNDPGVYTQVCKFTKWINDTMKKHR
# [8] = optical artefact potency, substrate without enzyme – biochemical, fluorescence intensity, triplicate, artefact control for kallikrein-7 zymogen activator project, dose response (AID 720493)
# [9] = A549 cell cytotoxicity, dose response, cytotoxicity control, plate reader, cherry-pick, antagonist series (AID 743412); type: functional, cell-based
# [10] = inhibition of bursicon-driven LGR2 cAMP signaling – cell-based, HEK293, CRE-luciferase reporter, cherry pick, dose response (AID 743342); type: functional
# [11] = biological target: Endoplasmic reticulum aminopeptidase 1 (Homo sapiens, UniProt Q9NZ08); experiment: inhibition of human ERAP1 enzyme activity – biochemical, cherry-pick, set 2, plate reader, dose response (AID 743314)
# [12] = Luminescence Cell-Based Dose Response to Identify Activators of 5'UTR Stem-Loop Driven Prion Protein mRNA Translation in H4-C Neuroglioblastoma Cells. [Related pubchem assays: 1829 (Project Summary), 1814 (Primary HTS)]; type: functional
# [13] = Luminescence Cell-Based Dose Response HTS to Identify Activators of Luciferase Translation or Activity in H4 […] Cells. [Related pubchem assays: 1829 (Project Summary), 1814 (Primary HTS)]; type: functional
# H4 = experiment: Luminescence Cell-Based Dose Response HTS to Identify Activators of 5'UTR Stem-Loop Driven Prion Protein mRNA Translation in H4 Neuroglioblastoma Cells. [Related pubchem assays: 1829 (Project Summary), 1814 (Primary HTS)]; type: functional; conditions: Homo sapiens
# [14] = Luminescence Cell-Based Dose Response to Identify Activators of Luciferase Translation or Activity in H4-C Neuroglioblastoma Cells. [Related pubchem assays: 1829 (Project Summary), 1814 (Primary HTS)]; type: functional
# [15] = biological target: Peroxisome proliferator-activated receptor gamma/Nuclear receptor corepressor 2 (Homo sapiens, UniProt P37231+Q9Y618); experiment: Counterscreen for NR2E3 inverse agonists: TR-FRET-based biochemical high throughput dose response assay to identify inverse agonists of the interaction between peroxisome proliferator-activated receptor gamma (PPARg) and nuclear receptor co-repressor 2 (NCOR2).; type: functional
# Sequence of Peroxisome proliferator-activated receptor gamma/Nuclear receptor corepressor 2 (P37231 whole entry): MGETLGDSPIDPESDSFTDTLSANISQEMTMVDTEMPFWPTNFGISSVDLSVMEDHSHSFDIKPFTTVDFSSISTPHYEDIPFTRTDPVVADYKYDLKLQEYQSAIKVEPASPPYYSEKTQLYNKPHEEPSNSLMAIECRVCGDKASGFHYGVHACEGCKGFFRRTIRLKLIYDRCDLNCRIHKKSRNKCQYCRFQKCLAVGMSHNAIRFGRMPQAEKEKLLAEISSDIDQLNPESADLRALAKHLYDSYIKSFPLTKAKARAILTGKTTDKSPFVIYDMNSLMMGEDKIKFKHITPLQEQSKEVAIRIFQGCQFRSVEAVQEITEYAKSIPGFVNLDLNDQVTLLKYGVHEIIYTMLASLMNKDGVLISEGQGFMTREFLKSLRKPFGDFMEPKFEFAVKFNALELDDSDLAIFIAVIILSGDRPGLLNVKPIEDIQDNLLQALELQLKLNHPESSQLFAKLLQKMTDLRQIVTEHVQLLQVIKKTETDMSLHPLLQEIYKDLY
# Sequence of Peroxisome proliferator-activated receptor gamma/Nuclear receptor corepressor 2 (Q9Y618 whole entry): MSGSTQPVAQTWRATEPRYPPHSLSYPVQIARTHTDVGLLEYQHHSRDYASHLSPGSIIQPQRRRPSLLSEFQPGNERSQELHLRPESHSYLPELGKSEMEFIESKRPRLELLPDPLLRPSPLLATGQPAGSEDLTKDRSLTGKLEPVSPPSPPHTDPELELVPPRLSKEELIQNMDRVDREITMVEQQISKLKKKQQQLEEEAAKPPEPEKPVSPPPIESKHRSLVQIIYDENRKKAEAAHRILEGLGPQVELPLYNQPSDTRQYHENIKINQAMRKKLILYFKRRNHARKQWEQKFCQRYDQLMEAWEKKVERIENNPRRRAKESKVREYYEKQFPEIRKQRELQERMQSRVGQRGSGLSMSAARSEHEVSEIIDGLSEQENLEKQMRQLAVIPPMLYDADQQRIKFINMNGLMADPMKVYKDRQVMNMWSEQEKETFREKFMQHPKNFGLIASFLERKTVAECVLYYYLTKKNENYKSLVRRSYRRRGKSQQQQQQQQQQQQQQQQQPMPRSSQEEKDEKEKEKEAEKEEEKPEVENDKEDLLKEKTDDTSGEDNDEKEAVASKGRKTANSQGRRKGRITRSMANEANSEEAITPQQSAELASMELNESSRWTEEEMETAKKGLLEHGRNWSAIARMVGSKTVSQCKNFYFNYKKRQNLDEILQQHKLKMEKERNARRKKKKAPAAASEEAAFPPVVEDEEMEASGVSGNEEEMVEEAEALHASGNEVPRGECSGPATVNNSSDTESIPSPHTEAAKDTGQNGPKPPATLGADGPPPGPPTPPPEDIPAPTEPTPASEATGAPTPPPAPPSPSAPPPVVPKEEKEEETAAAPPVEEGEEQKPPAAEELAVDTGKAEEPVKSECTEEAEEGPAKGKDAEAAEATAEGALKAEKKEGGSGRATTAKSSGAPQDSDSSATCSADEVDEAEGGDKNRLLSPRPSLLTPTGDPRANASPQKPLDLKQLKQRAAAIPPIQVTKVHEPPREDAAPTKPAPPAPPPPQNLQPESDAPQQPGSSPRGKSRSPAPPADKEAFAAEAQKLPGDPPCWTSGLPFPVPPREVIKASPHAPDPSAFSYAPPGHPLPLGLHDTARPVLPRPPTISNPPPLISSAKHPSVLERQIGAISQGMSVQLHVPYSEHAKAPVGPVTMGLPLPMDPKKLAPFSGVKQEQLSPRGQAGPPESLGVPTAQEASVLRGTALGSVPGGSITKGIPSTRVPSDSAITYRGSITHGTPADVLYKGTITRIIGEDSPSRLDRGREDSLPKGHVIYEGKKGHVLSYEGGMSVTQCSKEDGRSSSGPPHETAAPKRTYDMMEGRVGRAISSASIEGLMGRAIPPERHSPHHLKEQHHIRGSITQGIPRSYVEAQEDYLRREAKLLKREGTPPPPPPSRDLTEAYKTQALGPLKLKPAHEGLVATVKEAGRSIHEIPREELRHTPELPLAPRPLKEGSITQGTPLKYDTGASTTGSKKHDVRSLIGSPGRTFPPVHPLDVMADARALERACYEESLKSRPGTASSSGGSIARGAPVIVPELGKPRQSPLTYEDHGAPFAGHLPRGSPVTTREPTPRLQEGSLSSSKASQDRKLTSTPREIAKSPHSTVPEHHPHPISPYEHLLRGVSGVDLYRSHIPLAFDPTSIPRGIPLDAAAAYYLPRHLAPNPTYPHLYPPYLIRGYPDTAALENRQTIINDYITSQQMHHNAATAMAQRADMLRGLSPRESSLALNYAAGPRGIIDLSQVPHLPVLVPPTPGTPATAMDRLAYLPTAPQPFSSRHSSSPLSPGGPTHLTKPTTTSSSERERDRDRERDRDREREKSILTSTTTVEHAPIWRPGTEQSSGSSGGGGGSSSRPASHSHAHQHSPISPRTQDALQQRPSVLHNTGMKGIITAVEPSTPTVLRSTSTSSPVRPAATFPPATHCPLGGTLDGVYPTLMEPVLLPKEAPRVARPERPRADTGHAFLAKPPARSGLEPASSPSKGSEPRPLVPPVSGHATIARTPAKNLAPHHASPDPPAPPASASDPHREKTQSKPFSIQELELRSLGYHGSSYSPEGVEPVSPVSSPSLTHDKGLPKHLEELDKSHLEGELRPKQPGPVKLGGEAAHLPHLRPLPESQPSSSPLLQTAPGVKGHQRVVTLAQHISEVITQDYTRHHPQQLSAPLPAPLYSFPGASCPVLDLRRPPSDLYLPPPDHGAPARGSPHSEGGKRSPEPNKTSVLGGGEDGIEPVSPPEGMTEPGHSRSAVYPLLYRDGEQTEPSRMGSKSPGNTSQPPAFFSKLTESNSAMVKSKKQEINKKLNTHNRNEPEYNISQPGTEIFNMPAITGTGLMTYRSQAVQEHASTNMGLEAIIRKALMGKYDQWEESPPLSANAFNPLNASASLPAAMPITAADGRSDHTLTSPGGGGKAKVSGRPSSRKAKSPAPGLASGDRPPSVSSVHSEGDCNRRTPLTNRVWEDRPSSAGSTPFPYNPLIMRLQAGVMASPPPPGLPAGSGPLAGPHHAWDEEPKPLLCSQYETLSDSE
# [16] = biological target: Photoreceptor-specific nuclear receptor (Homo sapiens, UniProt Q9Y5X4); experiment: ligands suppressing NR2E3 nuclear receptor activity – biochemical, TR-FRET, dose response (AID 463256); type: functional
# [17] = Luminescence Cell-Based Dose Confirmation to Identify Activators of 5'UTR Stem-Loop Driven Alpha-Synuclein mRNA Translation in H4 Neuroglioblastoma Cells. [Related pubchem assays: 1829 (Project Summary), 1814 (Primary HTS)]; type: functional
# [18] = biological target: Fructose-bisphosphate aldolase (Mycobacterium tuberculosis, UniProt P9WQA3); experiment: Fluorescence-based biochemical high throughput dose response assay for inhibitors of the fructose-bisphosphate aldolase (FBA) of M. tuberculosis.; type: functional
# [19] = biological target: T1, Matrix metalloproteinase-14; experiment: Dose Response confirmation of uHTS hits for a small molecule inhibitors of MT1-MMP activation in a fluorescence assay set 2.; type: functional
# Vero = experiment: viability loss in Vero cells – cell-based, plate reader, cherry-pick samples, cytotoxicity control, dose response (AID 687020); type: functional; conditions: Chlorocebus sabaeus
# A549 = experiment: viability loss in A549 cells – cell-based, plate reader, cherry-pick samples, cytotoxicity control, dose response (AID 687028); type: functional; conditions: Homo sapiens
# Paired box protein Pax-8 = Paired box protein Pax-8 (Homo sapiens, UniProt Q06710); experiment: PAX8 transcriptional activity inhibition in RMG-I – RMG-I cells, luciferase, cherry-pick, dose response (AID 687027); type: functional, cell-based;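 further: luciferase reporter driven by Pax8 target thyroperoxidase promoter measured by SteadyGlo luminescence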
# Sequence of Paired box protein Pax-8 (Q06710 whole entry): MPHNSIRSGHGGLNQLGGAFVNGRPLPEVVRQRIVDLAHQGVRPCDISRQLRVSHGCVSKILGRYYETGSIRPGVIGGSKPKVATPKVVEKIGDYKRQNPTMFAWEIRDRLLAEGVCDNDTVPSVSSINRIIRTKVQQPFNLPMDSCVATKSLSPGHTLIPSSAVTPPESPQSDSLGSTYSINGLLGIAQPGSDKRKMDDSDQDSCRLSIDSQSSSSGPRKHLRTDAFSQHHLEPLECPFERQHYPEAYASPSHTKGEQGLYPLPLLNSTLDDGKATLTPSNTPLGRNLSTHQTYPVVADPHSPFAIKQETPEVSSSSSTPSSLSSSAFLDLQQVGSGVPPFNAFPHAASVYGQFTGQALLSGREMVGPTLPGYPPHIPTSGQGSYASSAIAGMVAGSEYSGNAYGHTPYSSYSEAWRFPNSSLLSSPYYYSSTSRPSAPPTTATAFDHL
# [20] = inhibitors of EBV LMP1 NF-kappaB signaling – cell-based, luciferase reporter, luminescence, dry powder, set 2, dose response (AID 624376); type: functional
# [21] = LMP1-induced NF-kB luciferase signal inhibition – cell-based, EBV LMP1, dry powder, set 2, dose response (AID 624361); type: functional
# Caspase-6 = biological target: T2, Caspase-6 (Homo sapiens, UniProt P55212); experiment: inhibition of CASP6 peptide cleavage – biochemical, VEID-R110 fluorescence, dry powder retest, dose response (AID 743332)
# T2 sequence (P55212 whole entry): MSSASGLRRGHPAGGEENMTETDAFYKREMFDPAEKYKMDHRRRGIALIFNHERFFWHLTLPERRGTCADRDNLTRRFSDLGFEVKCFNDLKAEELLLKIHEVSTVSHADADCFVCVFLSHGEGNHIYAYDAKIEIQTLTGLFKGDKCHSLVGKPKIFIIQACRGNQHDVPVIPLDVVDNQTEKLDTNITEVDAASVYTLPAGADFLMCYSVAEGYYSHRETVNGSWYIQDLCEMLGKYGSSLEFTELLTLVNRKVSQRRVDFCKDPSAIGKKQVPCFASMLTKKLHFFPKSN
# HeLa = experiment: viability loss in HeLa cells – cell-based, ATP luminescence, cherry-pick samples, cytotoxicity control, dose response (AID 687004); type: functional; conditions: Homo sapiens
# HEK293 = experiment: viability loss in HEK293T cells – cell-based, ATP luminescence, cherry-pick samples, cytotoxicity control, dose response (AID 687005); type: functional; conditions: Homo sapiens;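 further: cells exposed to compound for 48 hours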
# [22] = HEK293 Cytotoxicity Assay Measured in Cell-Based System Using Plate Reader - 7071-01_Inhibitor_Dose_CherryPick_Activity_Set2.; type: functional
# [23] = viability loss in CEM21 cells – cell-based, plate reader, dry powder, cytotoxicity control, dose response (AID 687026); type: functional
# [24] = blockers of FN fibrillogenesis by fibroblasts – AH1F cells, Alexa488-FN fluorescence, cherry-picks, dose response (AID 1035475); type: functional, cell-based
# [25] = biological target: Potassium channel subfamily K member 9 (Homo sapiens, UniProt Q9NPC2); experiment: KCNK9 flux blockade, concentration-response – cell-based, FluxOR thallium flux, selectivity assay for TASK1 inhibitor project, SAR follow-up (AID 652211); type: functional;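 further: potency is for inhibitors of the channel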
# [26] = biological target: Potassium channel subfamily K member 3 (Homo sapiens, UniProt O14649); experiment: inhibition of human KCNK3 channel flux – CHO cells, FluxOR thallium flux, SAR follow-up (AID 652212); type: functional
# Sequence of Potassium channel subfamily K member 3 (O14649 whole entry): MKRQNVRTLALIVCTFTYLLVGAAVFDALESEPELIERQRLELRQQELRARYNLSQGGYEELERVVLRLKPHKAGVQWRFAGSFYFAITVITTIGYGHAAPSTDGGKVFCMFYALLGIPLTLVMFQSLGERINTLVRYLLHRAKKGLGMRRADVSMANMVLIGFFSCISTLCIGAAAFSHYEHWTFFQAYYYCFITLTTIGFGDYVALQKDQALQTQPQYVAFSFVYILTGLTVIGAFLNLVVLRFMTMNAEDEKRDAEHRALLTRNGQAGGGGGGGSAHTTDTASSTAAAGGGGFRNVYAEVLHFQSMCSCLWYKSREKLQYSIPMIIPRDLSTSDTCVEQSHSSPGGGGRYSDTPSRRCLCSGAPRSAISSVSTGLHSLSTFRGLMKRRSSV
# BHK-21 = experiment: viability loss in BHK-21 cells – cell-based, plate reader, cherry-pick samples, cytotoxicity control, dose response (AID 687030); type: functional; conditions: Mesocricetus auratus
# [27] = disruptors of Keap1 Kelch-Nrf2 peptide binding – biochemical, fluorescence polarization, dry powder, set 2, dose response (AID 651801)
# [28] = disruptors of Keap1 Kelch-Nrf2 peptide binding – biochemical, fluorescence polarization, dry powder samples, dose response (AID 651798)
# [29] = CTGF mRNA reduction in DLD1 cells – cell-based, DLD1 colon cancer, RT-qPCR, cherry-pick, dose response (AID 1053122); type: functional; conditions: Cancer cell lines
# [30] = TNFa-induced NF-kB reporter signal decrease – HEK293 LMP1 reporter cells, dry powder, set 2, selectivity assay for EBV LMP1 NF-kB inhibitor project, dose response (AID 624369); type: functional
# [31] = OVCAR-3 cell viability loss – plate reader, dry powder samples, PAX8 inhibitor project, dose response (AID 743044); type: functional, cell-based
# [32] = OVCAR8 cell viability loss – plate reader, dry powder samples, PAX8 project, dose response (AID 743197); type: functional, cell-based; conditions: OVCAR-8
# [33] = disruptors of Keap1/Nrf2 protein interaction – biochemical, fluorescence polarization, dry powder, set 3, dose response (AID 651806)
# Sequence of Nonstructural protein 1 (Q194T2 whole entry): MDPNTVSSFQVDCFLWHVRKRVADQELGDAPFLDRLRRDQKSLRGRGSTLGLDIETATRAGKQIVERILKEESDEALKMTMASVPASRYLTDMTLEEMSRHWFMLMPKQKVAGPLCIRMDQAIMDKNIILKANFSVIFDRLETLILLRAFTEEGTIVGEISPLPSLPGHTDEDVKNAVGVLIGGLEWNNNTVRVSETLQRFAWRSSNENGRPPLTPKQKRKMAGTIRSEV
smiles,measurement,setting,value
CC(C)(C)OC(=O)Nc1nc2ccc(C(=O)Nc3ccnc(F)c3)cc2s1,CC50,[1],> 300 µM (inactive)
Cc1cc(N(CCO)CCO)ccc1N=Nc1cc(F)ccc1F,IC50,Nonstructural protein 1,19.2 µM (active)
same,IC50,[2],31.6 µM (inactive)
COC(=O)c1cc(-c2ccc(OC)cc2)c(-c2ccc(OC)cc2)s1,IC50,[3],1.58 µM (active)
same,IC50,Mu-type opioid receptor,> 50 µM (inactive)
same,IC50,[4],19.8 µM (inactive)
same,IC50,[5],> 50 µM (inactive)
Cc1c(Cl)ccc2sc(NC(=O)c3ccco3)nc12,AC50,[6],17.4 µM (active)
Cc1cc2cc(C#Cc3ccc(C(=O)N4CCCC(CO)C4)cc3)ccc2o1 (configuration not stated),IC50,[7],3.91 µM
CN1CCN(Cc2c(O)c(Cl)cc3c(-c4ccccc4)cc(=O)oc23)CC1,EC50,Kallikrein-7,68.3 µM (inactive)
same,EC50,[8],> 0.286 µM (active)
C[C@H](CO)N1C[C@H](C)[C@H](CN(C)C(=O)Nc2ccc(F)cc2)OCCCC[C@H](C)Oc2ccc(NC(=O)Nc3ccc(F)cc3)cc2C1=O,AC50,[9],> 47 µM (inactive)
same,AC50,[10],16.1 µM (active)
CCc1c(C)c2cc(Cl)c(O)c(CN(C)C)c2oc1=O,AC50,[11],5.35 µM (active)
CN1CCSc2ccc(C(=O)Nc3ccc(Cl)cc3)cc21,EC50,[12],0.208 µM (active)
same,EC50,[13],0.148 µM (active)
same,EC50,H4,0.101 µM (active)
same,EC50,[14],0.366 µM (active)
same,IC50,[15],8.59 µM (active)
same,IC50,[16],9.21 µM (active)
same,EC50,[17],0.321 µM (active)
same,IC50,[18],> 1.11 µM (active)
CN(CCCC(=O)O)c1ccc(N=Nc2ccc([N+](=O)[O-])cc2)cc1,IC50,Nonstructural protein 1,9.48 µM (active)
same,IC50,[19],18.9 µM (active)
CCCCCc1c(-c2ccccc2OC)ncn1CCc1ccccc1OC,AC50,Vero,3.91 µM (active)
same,AC50,A549,13.9 µM (active)
same,AC50,Paired box protein Pax-8,24.9 µM (active)
CC(=O)N(C)C[C@@H]1Oc2cc(C#Cc3ccc(F)cc3)ccc2S(=O)(=O)N([C@H](C)CO)C[C@H]1C,AbsAC35,[20],109.84 µM
same,AbsAC35,[21],57.53 µM
[O-][n+]1onc2c1CCc1c-2nn(-c2ccccc2)[n+]1[O-],AC50,Caspase-6,22.9 µM (active)
COCCNC(=O)C[C@H]1C=C[C@@H](NS(=O)(=O)c2ccc(C)cc2)[C@H](CO)O1,AC50,HeLa,19.9 µM (active)
same,AC50,HEK293,23.9 µM (active)
same,AC50,[22],23.9 µM (active)
CCCOc1ccc(S(=O)(=O)NCc2ccncc2)c2ccccc12,AC50,[23],> 70 µM (inactive)
N#Cc1ccc(-c2ccc3c(c2)[C@@H]2[C@@H](CCN2S(=O)(=O)c2ccccc2F)[C@H](CO)N3)cc1,AC50,[24],24.5 µM (active)
CCOc1ccccc1NC(=O)c1cccc(NC(=O)C2CCCCC2)c1,IC50,[25],1.3 µM (active)
same,IC50,[26],0.067 µM (active)
Cc1cccn2c(=O)c3cc(C(N)=S)c(=N)n(CCCOC(C)C)c3nc12,AC50,cells,0.626 µM (active)
COc1ccc2c3c([nH]c2c1)[C@H](CO)N(C(=O)Nc1cccc(F)c1)CC31CN(S(=O)(=O)c2ccccc2)C1,AC50,BHK-21,34.1 µM (active)
O=C(O)C1CCCCC1C(=O)N1CCc2ccccc2C1CN1C(=O)c2ccccc2S1(=O)=O (configuration not stated),AC50,[27],78.9 µM (active)
same,AC50,[28],71.1 µM (active)
COc1ccccc1NC(=O)N1CCCCN2[C@@H](CO)[C@H](c3ccc(-c4cccc(C#N)c4)cc3)[C@@H]2C1,AC50,[29],0.918 µM (active)
COc1ccccc1C#Cc1ccc2c(c1)O[C@H](CN(C)Cc1cccnc1)[C@H](C)CN([C@@H](C)CO)S2(=O)=O,AbsAC35,[30],38.33 µM
same,AC50,Paired box protein Pax-8,7.51 µM (active)
same,AC50,[31],21.4 µM (active)
same,AC50,[32],32.2 µM (active)
O=C(O)[C@H]1CCCC[C@H]1C(=O)N1CCc2ccccc2[C@H]1CNS(=O)(=O)c1ccc([N+](=O)[O-])cc1,AC50,[33],88.3 µM (active)
